Assay results reported in US10201556B2, “Combination for use in treating diseases or conditions associated with melanoma, or treating diseases or conditions associated with activated B-raf pathway” (InteRNA Technologies B.V., priority 2012, dated 2019).
Read-outs that look alike come from different tables or passages of the source.

Assays:
[1] = test system: mRNA levels in A375 cells; experiment: RNA sequencing (transcriptome) of transfected A375 cells; assay type: cell-based, human; details: 100 nM mimic
Experimental: A375 cells were plated in duplo in a 6-well plate at 1.5×10^5 cells/well. The next day, cells were transfected with 100 nM miR-3157 or Negative Control #2 mimics, using 15 μl X-tremeGENE. This procedure (plating and transfection) was repeated three times to generate biological replicates. After 72 hrs, total RNA was isolated using TRI reagent (Sigma-Aldrich) according to the manufacturer's protocol. From 30 μg total RNA, the mRNA was isolated using the MicroPoly(A)Purist kit (Ambion), and the mRNA-ONLY Eukaryotic mRNA Isolation Kit (Epicenter). RNAseq libraries were further prepared using the SOLiD™ Total RNA-Seq Kit (Life Technologies (LT)). Fragmentation of the isolated mRNA was performed by incubation in 20 μl 3 mM MgCl/10 mM Tris pH8, for 15 minutes at 95° C. The fragmented mRNA was incubated with SOLiD™ Adapter mix (LT) in STAR hybridization solution (LT), and incubated for 5 minutes at 65° C. After incubation on ice, adapter ligation was performed according to the STAR protocol (LT). The samples were run on a 10% denaturing polyacrylamide gel, and fragments from 180-300 nucleotides were excised. Reverse transcription and PCR amplification of the libraries was performed according to the STAR protocol, followed by excision of 200 to 300 nucleotide fragments from a 6% native polyacrylamide gel. Sequencing of the fragments was performed on the SOLiD™ System (LT). […]

[2] = test system: A375Hu-R1 (vemurafenib resistant clone of A375Hu); experiment: Anti-proliferative effect of small molecules, MTS assay; assay type: cell-based; details: Homo sapiens, A375Hu-R1 (A375-R), in vitro acquired resistance, 72 hours
Experimental: (§1) The anti-proliferative effect of small molecules in melanoma cell lines was determined with V600E BRAF inhibitor, vemurafenib (PLX-4032, 51267, Selleck) and MEK inhibitor, selumetinib (AZD-6244, S1008, Selleck). For each cell line optimal growth conditions were determined prior to the experiment. Cells were plated in a 96-well plate at 3000 cells per well (100 uL) and were grown at 37 C, 5% CO2. Small molecule mix (50 uL per well) was made for each concentration in medium. Cells were treated in triplicate 24 hours after plating. After 72 hours medium was replaced and viability was measured with the MTS assay (Promega) according to manufacturer's instructions. Cell viability inhibition is normalized against loading control (0.1% DMSO) and GraphPad Prism was used to fit the curve and calculate GI50 values.
The A375Hu melanoma cell line was used to make a vemurafenib (PLX-4032) resistant sub line. A375Hu cells were plated at low density in 96-well plates and exposed to 1 uM PLX-4032. Cell growth was monitored until clonal growth was observed. Wells with clonal growth (approximately 5%) were replated in a 96-well plate and exposed to 1 uM PLX-4032. The 10 best growing clones were replated in 6-well plates in 1 uM PLX-4032 and the three best growing clones were used for further culturing. Clone number 1 (A375Hu-R1) grew best with 1 uM PLX-4032 and was chosen for additional experiments.

[3] = test system: M249 melanoma cell line; experiment: as above; assay type: cell-based; details: M249, 72 h, M249, vemurafenib sensitive
Experimental: as §1

[4] = test system: A375Hu melanoma cell line; experiment: as above; assay type: cell-based; details: Homo sapiens, A-375, 72 h, A375Hu (A375), vemurafenib sensitive
Experimental: as §1

[5] = test system: RPMI-7951 melanoma cell line; experiment: as above; assay type: cell-based; details: Homo sapiens
Experimental: as §1

[6] = test system: A2058 melanoma cell line; experiment: as above; assay type: cell-based; details: Homo sapiens, A2058, intrinsic resistance, 72 hours
Experimental: as §1

[7] = test system: M249-R4 melanoma cell line; experiment: as above; assay type: cell-based; details: M249-R4 (M249-AR4), in vitro acquired resistance, 72 hours
Experimental: as §1

[8] = test system: phospho-ERK1/2; details: cited from earlier work

Compound | decrease of mRNA levels of CDK4, BCL2 and BIRC5 in the RNAseq analysis ([1]; 72 hrs) | predicted targets with reduced mRNA levels ([1]; change at least 60%, p<10^-5, in silico target prediction) | GI50 [2] | GI50 [3] | GI50 [4] | cytotoxicity at 3 µM ([5]; RPMI-7951, 3 μM vemurafenib (FIG. 15a), read-out: reduction of cell viability) | GI50 ([5]; RPMI-7951, intrinsic resistance, 72 hours, MTS) | GI50 [6] | GI50 [7] | pERK ([8]; A375, A2058 and M249 (Atefi et al. 2011, Nazarian et al. 2010)) | pERK ([8]; M249-AR4 and M376 (Atefi et al. 2011, Nazarian et al. 2010))
hsa-miR-3157-5p: mature miRNA mimic, SEQ ID NO 6 UUCAGCCAGGCUAGUGCAGUCU (listed as RNA, chemistry not given here) | 60% | 145 genes |  |  |  |  |  |  |  |  | 
CCCS(=O)(=O)Nc1ccc(F)c(C(=O)c2c[nH]c3ncc(-c4ccc(Cl)cc4)cc23)c1F [Vemurafenib, N-(3-{[5-(4-chlorophenyl)-1H-pyrrolo[2,3-b]pyridin-3-yl]carbonyl}-2,4-difluorophenyl)propane-1-sulfonamide] |  |  | > 10 µM | ~0.3 µM | ~0.1 µM | ~20% | > 10 µM | > 10 µM | > 10 µM | downregulates | not
